Where only a bound is given, the exact number is not on record here.

Results on 2 compounds are retold here after patent US20070129358A1, “Sbstituted chroman derivatives, processes for their preparation and their use as antiinflammatory agents” (priority 2005, published 2007).

Experiment [1] concerns the target T1, glucocorticoid receptor (GR) (Homo sapiens, UniProt P04150).
T1 construct: made in house; host or cells: Sf9 cells infected with recombinant baculovirus (cytosol preparation)
T1 sequence (P04150 1-777): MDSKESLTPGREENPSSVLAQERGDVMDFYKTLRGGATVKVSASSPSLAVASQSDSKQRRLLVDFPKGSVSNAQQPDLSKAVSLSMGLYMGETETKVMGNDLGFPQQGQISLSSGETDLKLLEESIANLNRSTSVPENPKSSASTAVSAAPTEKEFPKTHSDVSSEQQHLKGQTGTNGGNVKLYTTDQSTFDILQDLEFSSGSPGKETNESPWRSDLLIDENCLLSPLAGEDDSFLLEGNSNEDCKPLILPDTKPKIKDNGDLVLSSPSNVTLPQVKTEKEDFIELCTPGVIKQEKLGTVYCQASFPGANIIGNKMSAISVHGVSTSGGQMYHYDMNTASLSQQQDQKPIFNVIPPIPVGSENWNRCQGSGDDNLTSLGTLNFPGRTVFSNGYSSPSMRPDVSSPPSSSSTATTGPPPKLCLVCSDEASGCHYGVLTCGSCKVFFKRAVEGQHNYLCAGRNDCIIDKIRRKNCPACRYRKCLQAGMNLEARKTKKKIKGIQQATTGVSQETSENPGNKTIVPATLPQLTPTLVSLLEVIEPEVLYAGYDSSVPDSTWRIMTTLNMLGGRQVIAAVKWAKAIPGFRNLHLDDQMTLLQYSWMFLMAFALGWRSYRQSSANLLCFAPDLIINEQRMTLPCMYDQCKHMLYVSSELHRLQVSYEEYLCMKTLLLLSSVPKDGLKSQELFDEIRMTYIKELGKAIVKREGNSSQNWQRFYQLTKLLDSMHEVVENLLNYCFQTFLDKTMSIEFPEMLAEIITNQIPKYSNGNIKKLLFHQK
In words: Glucocorticoid receptor binding with recombinantly prepared receptor, [3H]-dexamethasone as reference. The following applies: cytosol preparations of Sf9 cells infected with recombinant baculoviruses coding for GR. The text has this: (§1) The binding of the substances to the glucocorticoid receptor (GR) and further steroid hormone receptors (mineral corticoid receptor (MR), progesterone receptor (PR) and androgen receptor (AR)) is examined with the aid of recombinantly prepared receptors. Cytosol preparations of Sf9 cells which had been infected with recombinant baculoviruses which code for the GR are employed for the binding studies. Compared with the reference substance [^3H]-dexamethasdne, the substances show a high affinity for the GR. Thus, an IC50(GR)=20 nM and IC50(PR) >1 μM was measured for the compound of example 1 and an IC50(GR)=30 nM and IC50(PR) >1 μM was measured for the compound of example 2.

Experiment [2] has as its target T2, progesterone receptor (PR) (Homo sapiens, UniProt P06401).
T2 construct: made in house
T2 sequence (P06401 1-933): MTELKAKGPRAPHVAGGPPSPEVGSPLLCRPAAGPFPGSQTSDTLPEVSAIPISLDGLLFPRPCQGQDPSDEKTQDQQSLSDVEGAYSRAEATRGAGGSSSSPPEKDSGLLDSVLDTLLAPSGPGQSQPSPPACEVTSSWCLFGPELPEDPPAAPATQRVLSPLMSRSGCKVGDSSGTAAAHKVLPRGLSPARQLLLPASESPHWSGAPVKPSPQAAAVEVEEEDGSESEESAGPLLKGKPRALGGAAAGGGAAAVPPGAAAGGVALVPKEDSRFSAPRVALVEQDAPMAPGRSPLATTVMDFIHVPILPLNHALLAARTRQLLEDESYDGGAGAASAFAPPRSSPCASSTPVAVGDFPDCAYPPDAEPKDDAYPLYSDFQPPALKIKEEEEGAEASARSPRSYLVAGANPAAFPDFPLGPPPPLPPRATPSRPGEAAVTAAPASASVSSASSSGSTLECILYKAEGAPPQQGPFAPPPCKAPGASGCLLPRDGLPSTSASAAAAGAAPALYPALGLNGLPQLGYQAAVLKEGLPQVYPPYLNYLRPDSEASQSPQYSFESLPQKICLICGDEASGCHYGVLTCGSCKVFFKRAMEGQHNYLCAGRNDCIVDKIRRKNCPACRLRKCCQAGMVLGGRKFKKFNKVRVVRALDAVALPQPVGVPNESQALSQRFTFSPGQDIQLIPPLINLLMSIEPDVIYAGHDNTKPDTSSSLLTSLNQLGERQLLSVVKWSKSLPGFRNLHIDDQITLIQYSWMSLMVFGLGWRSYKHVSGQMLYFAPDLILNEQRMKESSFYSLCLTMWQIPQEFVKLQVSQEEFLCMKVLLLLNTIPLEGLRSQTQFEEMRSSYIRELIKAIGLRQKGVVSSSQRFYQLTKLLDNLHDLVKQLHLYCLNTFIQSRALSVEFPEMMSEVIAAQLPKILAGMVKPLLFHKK
In words: Progesterone receptor binding with recombinantly prepared receptor.
Excerpt: as §1

With `O=c1ccc2c(NCC(O)(CC3CCOc4ccccc43)C(F)(F)F)cccc2[nH]1` (stereo not shown) [Example 1], the IC50 was 20 nM in experiment [1] and greater than 1000 nM in experiment [2].
On the same counts, the results for `CC1(CC(O)(CNc2cccc3[nH]c(=O)ccc23)C(F)(F)F)CCOc2ccccc21` (single isomer, unassigned) [Example 2, 5-{[2-Hydroxy-3-(4-methylchroman-4-yl)-2-trifluoro-methylpropyl]amino}quinolin-2{1H}-one] are 30 nM and greater than 1000 nM.
